Toxic doses and inconclusive results are not listed. Cut-off read from the data, not from the text of the source: active = T/C of 150% or more; inactive = T/C below 125%.
System: L1210 leukemia ip in BDF1 mice, survival T/C
Assay: NCI In Vivo Anticancer Drug Screen. Data for tumor model L1210 Leukemia (intraperitoneal) in B6D2F1 (BDF1) mice
Details: endpoint: mean survival time, higher = longer survival
Outline: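 In this screen, tumor-bearing mice given compound are compared to those given vehicle, and their survival values are reported as a treated-to-control quotient.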

[1] = dose: 100.0 mg/kg/injection, schedule: Q04DX003 (ip), vehicle: saline
[2] = dose: 200.0 mg/kg/injection, schedule: Q04DX003 (ip), vehicle: saline
[3] = dose: 400.0 mg/kg/injection, schedule: Q04DX003 (ip), vehicle: saline
[4] = dose: 100.0 mg/kg/injection, schedule: Q01DX001 (ip), vehicle: carboxymethylcellulose (CMC)
[5] = dose: 200.0 mg/kg/injection, schedule: Q01DX001 (ip), vehicle: carboxymethylcellulose (CMC)
[6] = dose: 100.0 mg/kg/injection, schedule: Q01DX001 (ip), vehicle: saline
[7] = dose: 200.0 mg/kg/injection, schedule: Q01DX001 (ip), vehicle: saline
[8] = dose: 400.0 mg/kg/injection, schedule: Q01DX001 (ip), vehicle: saline
[9] = dose: 50.0 mg/kg/injection, schedule: Q04DX003 (ip), vehicle: saline
[10] = dose: 100.0 mg/kg/injection, schedule: Q01DX009 (ip), vehicle: saline
[11] = dose: 200.0 mg/kg/injection, schedule: Q01DX009 (ip), vehicle: saline
[12] = dose: 400.0 mg/kg/injection, schedule: Q01DX009 (ip), vehicle: saline
[13] = dose: 100.0 mg/kg/injection, schedule: Q01DX009 (ip), vehicle: saline with Tween-80
[14] = dose: 200.0 mg/kg/injection, schedule: Q01DX009 (ip), vehicle: saline with Tween-80
[15] = dose: 400.0 mg/kg/injection, schedule: Q01DX009 (ip), vehicle: saline with Tween-80
[16] = dose: 100.0 mg/kg/injection, schedule: Q04DX003 (ip), vehicle: saline with Tween-80
[17] = dose: 200.0 mg/kg/injection, schedule: Q04DX003 (ip), vehicle: saline with Tween-80
[18] = dose: 400.0 mg/kg/injection, schedule: Q04DX003 (ip), vehicle: saline with Tween-80

Measured: T/C

OCC1C(CO)C2(Cl)C(Cl)=C(Cl)C1(Cl)C2(Cl)Cl (stereo not given)
inactive: dose: 100.0 mg/kg/injection, schedule: Q01DX009 (ip), vehicle: Klucel (hydroxypropylcellulose) (HPC) 90 % of control | [1] 94 % of control | dose: 200.0 mg/kg/injection, schedule: Q01DX009 (ip), vehicle: Klucel (hydroxypropylcellulose) (HPC) 100 % of control | [2] 101 % of control | dose: 400.0 mg/kg/injection, schedule: Q01DX009 (ip), vehicle: Klucel (hydroxypropylcellulose) (HPC) 111 % of control | [3] 99 % of control

CCOc1ccc(Br)cc1C1N(Cc2ccccc2OC)CCCN1Cc1ccccc1OC
inactive: [4] 100 % of control | [5] 92 % of control | dose: 400.0 mg/kg/injection, schedule: Q01DX001 (ip), vehicle: carboxymethylcellulose (CMC) 94 % of control

O=C(CBr)c1ccc(I)cc1
inactive: dose: 3.13 mg/kg/injection, schedule: Q01DX009 (ip), vehicle: saline with Tween-80 92 % of control | dose: 6.25 mg/kg/injection, schedule: Q01DX009 (ip), vehicle: saline with Tween-80 95 % of control | dose: 12.5 mg/kg/injection, schedule: Q01DX009 (ip), vehicle: saline with Tween-80 97 % of control | dose: 25.0 mg/kg/injection, schedule: Q01DX009 (ip), vehicle: saline with Tween-80 100 % of control | [4] 91 % of control | [5] 101 % of control

NC(N)=N/N=C/CO
inactive: dose: 7.5 mg/kg/injection, schedule: Q01DX Z (oral), vehicle: saline 106 % of control | dose: 15.0 mg/kg/injection, schedule: Q01DX Z (oral), vehicle: saline 100 % of control | dose: 30.0 mg/kg/injection, schedule: Q01DX Z (oral), vehicle: saline 107 % of control | dose: 60.0 mg/kg/injection, schedule: Q01DX Z (oral), vehicle: saline 101 % of control | dose: 120.0 mg/kg/injection, schedule: Q01DX Z (oral), vehicle: saline 102 % of control | dose: 240.0 mg/kg/injection, schedule: Q01DX Z (oral), vehicle: saline 110 % of control

CN(CCO)C(=O)C1C(c2ccccc2)C1c1ccccc1 (stereo not given)
inactive: dose: 100.0 mg/kg/injection, schedule: Q04DX002 (ip), vehicle: Klucel (hydroxypropylcellulose) (HPC) 100 % of control | dose: 200.0 mg/kg/injection, schedule: Q04DX002 (ip), vehicle: Klucel (hydroxypropylcellulose) (HPC) 94 % of control | dose: 400.0 mg/kg/injection, schedule: Q04DX002 (ip), vehicle: Klucel (hydroxypropylcellulose) (HPC) 97 % of control

O=C1CC(c2ccc(O)cc2)C2(O1)C(=O)OC(C(O)CO)C2O (stereo not given)
inactive: [6] 98 % of control | [7] 101 % of control | [8] 96 % of control

O=C(O)C1(C(=O)O)CCOCC1
inactive: [9] 93 % of control | [10] 104 % of control | [1] 98 % of control | [11] 102 % of control | [2] 104 % of control | [12] 96 % of control | [3] 103 % of control

O=C(O)CCSC(c1ccccc1)(c1ccccc1)c1ccccc1
inactive: dose: 25.0 mg/kg/injection, schedule: Q01DX009 (ip), vehicle: saline 102 % of control | dose: 50.0 mg/kg/injection, schedule: Q01DX009 (ip), vehicle: saline 103 % of control | [10] 96 % of control | [11] 100 % of control | dose: 300.0 mg/kg/injection, schedule: Q01DX009 (ip), vehicle: saline 96 % of control | [12] 96 % of control

CC1(C)CCc2cc(C(=O)O)ccc2O1
inactive: dose: 50.0 mg/kg/injection, schedule: Q01DX001 (ip), vehicle: saline 100 % of control | [6] 100 % of control | [7] 103 % of control | [8] 100 % of control

CCOC(=O)Nc1cc(NC(C)CCCN(CC)CC)nc2nc(-c3ccc(Cl)cc3)cnc12 (stereo not given)
inactive: dose: 9.5 mg/kg/injection, schedule: Q01DX001 (ip), vehicle: saline 100 % of control | dose: 19.0 mg/kg/injection, schedule: Q01DX001 (ip), vehicle: saline 102 % of control | dose: 38.0 mg/kg/injection, schedule: Q01DX001 (ip), vehicle: saline 89 % of control | dose: 75.0 mg/kg/injection, schedule: Q01DX001 (ip), vehicle: saline 100 % of control

CC1(C)CN1C1=C(F)C(=O)C(N2CC2(C)C)=C(F)C1=O
inactive: dose: 6.25 mg/kg/injection, schedule: Q04DX003 (ip), vehicle: saline 100 % of control | dose: 12.5 mg/kg/injection, schedule: Q04DX003 (ip), vehicle: saline 104 % of control | dose: 25.0 mg/kg/injection, schedule: Q04DX003 (ip), vehicle: saline 104 % of control

NC(N)=NCCCC(NC(=O)c1ccccc1)C(=O)Nc1ccc([N+](=O)[O-])cc1 (stereo not given)
inactive: [13] 89 % of control | [1] 104 % of control | [14] 95 % of control | [2] 100 % of control | [15] 110 % of control | [3] 98 % of control

CCN(CC)CCOC(=O)C1c2ccccc2Oc2ccccc21
inactive: [4] 102 % of control | [5] 94 % of control

NC(=O)c1c[n+]([O-])ccn1
inactive: [9] 108 % of control | [6] 96 % of control | [1] 101 % of control | [7] 98 % of control | [2] 113 % of control

CCOC(=O)c1ccc(N(CC2CO2)S(=O)(=O)c2ccc(C)cc2)cc1 (stereo not given)
inactive: [16] 105 % of control | [17] 90 % of control | [18] 92 % of control

CCCCCCCCCCCCCCCCOc1ccccc1/C=N/O
inactive: [16] 94 % of control | [17] 95 % of control | [18] 90 % of control

O=[N+]([O-])c1[nH]c(Cl)nc1Cl
inactive: dose: 25.0 mg/kg/injection, schedule: Q01DX001 (ip), vehicle: saline with Tween-80 97 % of control | dose: 50.0 mg/kg/injection, schedule: Q01DX001 (ip), vehicle: saline with Tween-80 103 % of control

CCC1CCC(NC(=O)c2ccccc2)CC1 (stereo not given)
inactive: [13] 92 % of control | [14] 94 % of control | [15] 92 % of control

— PubChem BioAssay AID248 (DTP/NCI, 2004)
